# Laboratory results published in patent publication US8912137B2, “Method for increasing natriuresis or diuresis by isoforms of brain natriuretic peptide” (Mayo Foundation for Medical Education and Research, priority 2003, dated 2014).
# Columns and labels:
# normal dogs = assay: Intrarenal arterial infusion in normal dog; assay type: in vivo; details: intrarenal arterial infusion 0.03 ng/kg/min
# Method: To determine the physiological effects of BNP-3, the synthesized peptide was delivered via a direct intrarenal arterial infusion (0.03 ng/kg/min) in normal dogs. Physiologic assessment was performed following a 15 minute run-in period. […] Both of these increases normalized during a washout period.
# [1] = test system: Human umbilical vascular endothelial cells (HUVEC); assay: Stimulation of intracellular cGMP production in HUVEC (BIOTRACK cGMP enzyme immunoassay); assay type: cell-based; details: 30 minutes incubation, 0.5 mM IBXM
# Method: Human umbilical vascular endothelial cells (HUVEC) were cultured in 96-well plates using endothelial cell medium (EGM™-2) supplemented with the components provided by the EGM™-2 BulletKit (CC-3162) (Clonetics, East Rutherford, N.J.). After cells reached about 80% confluency, the plates were washed with phosphate-buffered saline ([…], SEQ ID NO:35) dissolved in EBM-2 that contained supplements and 0.5 mM IBXM. After incubation, the culture medium was aspirated, and the cells were assayed for intracellular cGMP production using the BIOTRACK cGMP enzyme immunoassay kit (Amersham Pharmacia Biotech). The amount of cGMP was calculated according the standard curve that was generated from parallel reactions within the same experiment.
# [2] = test system: carotid arteries from New Zealand White Rabbits; assay: Vasoactivity in organ chamber, phenylephrine pre-contracted carotid artery rings; details: rabbit carotid rings
# Method: Vasoactivity was assessed in an organ chamber using carotid arteries from New Zealand White Rabbits. Following euthanization, carotids were immediately immersed in cold Krebs solution. Arterial rings ˜4 mm in length (n=6) were dissected, connected to isometric force displacement transducers, and suspended in organ chambers filled with 25 mL of Krebs (94% O2, 6% CO2). Rings were equilibrated for 1 hour at 37° C. and then incrementally stretched to 3 g. Viability and maximum contraction was determined with 60 mM KCl. After 3 washes with Krebs solution and further equilibration, arteries were pre-contracted with phenylephrine in a titrated fashion to achieve ˜80% stable maximal contraction. To study vasoactivity, BNP3 (final cone 10^−10 to 10^−7 M) or vehicle was added to the organ bath in a cumulative manner. Following three further washes and equilibration, the arteries were re-contracted and viability was confirmed by assessment of endothelium independent responses with incremental doses of sodium nitroprusside (10^−9 to 10^−5 M), an exogenous NO donor.
# [3] = cited from earlier work
Substance,increased urinary flow (normal dogs),plasma cGMP (normal dogs),urinary excretion of sodium (normal dogs),cGMP ([1]; BNP3 10^−8 M) [fmol/well],cGMP ([1]; BNP3 10^−9 M) [fmol/well],cGMP ([1]; BNP3 10^−10 M) [fmol/well],concentration at which vasorelaxation began ([2]; cumulative addition 10^−10 to 10^−7 M),complete relaxation ([2]; dose 10^−7M) [%],complete relaxation ([2]; dose 10^−8M) [%],effect on heart rate ([3]; in vivo),pro-arrhythmic effect ([3]; in vivo),cardiac index ([3]; intravenous therapy),pulmonary capillary wedge pressure ([3]; intravenous therapy),systemic vascular resistance ([3]; intravenous therapy)
SPKMVQGSGCFGRKMDRISSSSGLGCKVVQKENQTFPPGFL (listed as Homo sapiens) [BNP3],6-8 fold,elevation of plasma cGMP,increased urinary excretion of sodium,26,18,1,10^−9 M,~95,~60,,,,,
"recombinant BNP: recombinant brain natriuretic peptide, 32 amino acid peptide with a ring structure (SEQ ID NO:16)",,,,,,,,,,no effect,not pro-arrhythmic,increases,significantly decreases,significantly decreases
